Laboratory results from article PMC6362004, “Minor sequence modifications in temporin B cause drastic changes in antibacterial potency and selectivity by fundamentally altering membrane activity” (Scientific Reports, 2019).
≈ marks a conversion by molar mass, not a printed value. Peptide text beside a SMILES is read from it.

Assays:
[1] = test system: EMR Staphylococcus aureus−15 NCTC 13616; assay type: cell-based; details: NCTC 13616, 18 h
Protocol: (§1) The antibacterial activity of the peptides studied was assessed through a modified two-fold broth microdilution assay, as described before. Briefly, a two-fold dilution of peptide stock solutions was performed in either non-cation adjusted Müller-Hinton broth (MHB) or Tryptic Soy broth (TSB) in a 96-well polypropylene microtiter plate. Then, 100 µl of bacterial suspension (back diluted from overnight cultures to an A600 of 0.01) were added to 100 µl of peptide solution in each well of the plate. Growth and sterility controls were present for each experiment. The plate was incubated at 37 °C for 18 hours without shaking and the MIC was defined as the lowest concentration where no visible growth could be detected by measuring the absorbance (A600) on an Omega plate reader.

[2] = test system: Pseudomonas aeruginosa NCTC 13437; assay type: cell-based; details: NCTC 13437, 18 h
Protocol: as §1

[3] = test system: EMR Staphylococcus aureus-16 NCTC 13277; assay type: cell-based; details: NCTC 13277, 18 h
Protocol: as §1

[4] = test system: VR Enterococcus faecalis NCTC 12201; assay type: cell-based; details: NCTC 12201, 18 h
Protocol: as §1

[5] = test system: VS Enterococcus faecalis NCTC 775; assay type: cell-based; details: NCTC 775, 18 h
Protocol: as §1

[6] = test system: Acinetobacter baumanii AYE; assay type: cell-based; details: 18 h
Protocol: as §1

[7] = test system: Pseudomonas aeruginosa PAO1; assay type: cell-based; details: PAO1, 18 h
Protocol: as §1

[8] = test system: MS Staphylococcus aureus NCTC 6571; assay type: cell-based; details: NCTC 6571, 18 h
Protocol: as §1

[9] = test system: E. coli cytoplasmic membrane; details: cited from earlier work
Excerpt: Here we investigated whether a combined biophysical approach is capable of discriminating the species specific antibacterial mechanisms of action between three analogues of temporin B. Although structures for the three peptides solved in anionic SDS were noticeably different, when applied to model membranes, little difference in conformation could be discerned in the steady-state. To address this, we developed an approach using the Port-a-Patch® tool from Nanion Technologies (Munich, Germany) and correlated the findings obtained from patch-clamp analysis to the primary sequence and the biophys ...

Gram-negative bacteria = details: cited from earlier work

Compound	MIC, peptide concentration [1] [µg/mL]	MIC, peptide concentration [3] [µg/mL]	MIC, peptide concentration [7] [µg/mL]	further results
CC[C@H](C)[C@H](NC(=O)[C@@H]1CCCN1C(=O)[C@H](CC(C)C)NC(=O)[C@H](CC(C)C)NC(=O)[C@H](CCCCN)NC(=O)[C@@H](N)CCCCN)C(=O)N[C@H](C(=O)N[C@@H](C)C(=O)N[C@@H](CC(N)=O)C(=O)N[C@@H](CC(C)C)C(=O)N[C@@H](CC(C)C)C(=O)N[C@@H](CCCCN)C(=O)N[C@@H](CO)C(=O)N[C@@H](CC(C)C)C(=O)N[C@@H](CC(C)C)C(N)=O)C(C)C [Temporin B KKG6A] (H-KKLLPIVANLLKSLL-NH2)	>128	>128		MIC, peptide concentration [2]: >128 µg/mL; MIC, peptide concentration [4]: >128 µg/mL; MIC, peptide concentration [5]: >128 µg/mL
CC[C@H](C)[C@H](NC(=O)[C@@H]1CCCN1C(=O)[C@H](CC(C)C)NC(=O)[C@@H](N)Cc1ccccc1)C(=O)N[C@H](C(=O)NCC(=O)N[C@@H](CC(C)C)C(=O)N[C@@H](CC(C)C)C(=O)N[C@@H](CCCCN)C(=O)N[C@@H](CO)C(=O)N[C@@H](CC(C)C)C(=O)N[C@@H](CC(C)C)C(=O)N[C@@H](CCCCN)C(N)=O)C(C)C [Temporin B L1FK] (H-FLPIVGLLKSLLK-NH2)	16 (≈ 11.1 µM)	16 (≈ 11.1 µM)	128 (≈ 88.9 µM)	MIC, peptide concentration [6]: 8 µg/mL (≈ 5.56 µM)
CC[C@H](C)[C@H](NC(=O)[C@@H]1CCCN1C(=O)[C@H](CC(C)C)NC(=O)[C@@H](N)CC(C)C)C(=O)N[C@H](C(=O)NCC(=O)N[C@@H](CC(N)=O)C(=O)N[C@@H](CC(C)C)C(=O)N[C@@H](CC(C)C)C(=O)N[C@@H](CCCCN)C(=O)N[C@@H](CO)C(=O)N[C@@H](CC(C)C)C(=O)N[C@@H](CC(C)C)C(N)=O)C(C)C [Temporin B] (H-LLPIVGNLLKSLL-NH2)		32 (≈ 23 µM)	>128	MIC, peptide concentration [8]: 16 µg/mL (≈ 11.5 µM)
LL-37: human antimicrobial peptide				Time to permeabilization of the E. coli cytoplasmic membrane and induction of oxidative stress [9]: around 25 minutes
temporin L				MIC (Gram-negative bacteria): 2 to 20 µM
